# Source: patent US11999739B2, “Antimicrobials methods of making and using the same” (BIOVERSYS AG, priority 2016, dated 2024)
# Legend:
# [1] = system: Escherichia coli strain ATCC25922; experiment: Standard microdilution MIC assay, E. coli; format: cell-based
# Protocol: (§1) The in vitro activity of the compounds of the present disclosure can be determined. Antimicrobial testing is typically performed to determine the minimum inhibitory concentration (MIC). Minimum inhibitory concentrations (MICs) are determined by the microdilution method in a final volume of 100 μl according to protocols outlined by The Clinical and Laboratory Standards Institute (CLSI). Performance standards for reference strains are assessed within the same experimental design to maintain quality control. See, for example, Clinical Laboratory Standards Institute: Methods for dilution antimicrobial susceptibility tests for bacteria that grow aerobically M7-A8. Approved Standard-Eighth Edition. Wayne, PA: CLSI; December 2008; and Clinical Laboratory Standards Institute: Performance Standards for Antimicrobial Susceptibility Testing M100-S20; Approved Standard-Twentieth Edition. Wayne, PA: CLSI; June 2010.
# (§2) The compounds of the present disclosure were tested for antimicrobial activity. The Compounds 1-293 were run against Escherichia coli (E co/i) strain ATCC25922 and against Staphylococcus aureus (S. aureus) 11540 strain using a standard microdilution assay to determine minimum inhibitory concentrations (MICs). […] It will be recognized by one skilled in the art that the compounds can be assessed against other bacterial organisms and that the presentation of data for activity against Escherichia coli and Staphylococcus aureus are illustrative and in no way is intended to limit the scope of the present disclosure. The compounds of the present disclosure can be assayed against a range of other microorganisms depending upon the performance activity desired to be gathered. Furthermore, the “+” and “−” representation and the selection of a cutoff value of 16 micrograms/mL is also illustrative and in no way is intended to limit the scope of the present disclosure.
# [2] = system: Staphylococcus aureus (S. aureus) 11540 strain; experiment: Standard microdilution MIC assay, S. aureus; format: cell-based
# Protocol: as §1, §2
SMILES,MIC [1],MIC [2]
CC(=N)NCCCN[C@H](C)c1ccc(-n2cc3cc(-c4cc(CCC[C@H](C)N)cc(Cl)c4F)[nH]c3nc2=O)cc1F [Compound 112],≤ 16 µg/mL,≤ 16 µg/mL
CC(=N)NCCCN[C@@H](C)c1ccc(-n2cc3cc(-c4cc(CCC[C@@H](N)CO)cc(Cl)c4F)[nH]c3nc2=O)cc1F [Compound 113],≤ 16 µg/mL,≤ 16 µg/mL
C[C@H](N)CCCc1cc(Cl)c(F)c(-c2cc3cn(-c4ccc([C@@H](C)NCCCNC(=N)CF)c(F)c4)c(=O)nc3[nH]2)c1 [Compound 114],≤ 16 µg/mL,≤ 16 µg/mL
CSc1cc(-n2cc3cc(-c4cc(CCC[C@H](C)N)cc(Cl)c4F)[nH]c3nc2=O)ccc1[C@@H]1CCC[C@@H](CCNC(C)=N)N1 [Compound 115],≤ 16 µg/mL,≤ 16 µg/mL
CSc1cc(-n2cc3cc(-c4cc(CCC[C@@H](N)CO)cc(Cl)c4F)[nH]c3nc2=O)ccc1[C@@H]1CCC[C@@H](CCNC(C)=N)N1 [Compound 116],≤ 16 µg/mL,≤ 16 µg/mL
CC(=N)NCC[C@@H]1CCC[C@@H](c2ccc(-n3cc4cc(-c5cc(CCC[C@@H](N)CO)cc(Cl)c5F)[nH]c4nc3=O)cc2S(C)(=O)=O)N1 [Compound 118],≤ 16 µg/mL,≤ 16 µg/mL
CC(=N)NCC[C@@H]1CCC[C@@H](c2ccc(-n3cc4cc(-c5cc(CCC[C@@H](N)CO)cc(Cl)c5F)[nH]c4nc3=O)cc2)N1C [Compound 121],≤ 16 µg/mL,≤ 16 µg/mL
CN1[C@H](CCNC(=N)CF)CCC[C@H]1c1ccc(-n2cc3cc(-c4cc(CCC[C@@H](N)CO)cc(Cl)c4F)[nH]c3nc2=O)cc1 [Compound 122],≤ 16 µg/mL,≤ 16 µg/mL
C=C[C@@H](N)CCCc1cc(Cl)c(F)c(-c2cc3cn(-c4ccc([C@@H]5CCC[C@@H](CCNC(C)=N)N5C)cc4)c(=O)nc3[nH]2)c1 [Compound 124],≤ 16 µg/mL,≤ 16 µg/mL
C[C@H](NCCCNC(=N)CF)c1ccc(-n2cc3cc(-c4cc(CCC[C@@H](N)CO)cc(Cl)c4F)[nH]c3nc2=O)cc1F [Compound 125],≤ 16 µg/mL,≤ 16 µg/mL
CSc1cc(-n2cc3cc(-c4cc(CCC[C@@H](N)CF)cc(Cl)c4F)[nH]c3nc2=O)ccc1[C@@H]1CCC[C@@H](CCNC(C)=N)N1 [Compound 126],≤ 16 µg/mL,≤ 16 µg/mL
C=C[C@@H](N)CCCc1cc(Cl)c(F)c(-c2cc3cn(-c4ccc([C@@H]5CCC[C@@H](CCNC(C)=N)N5)c(SC)c4)c(=O)nc3[nH]2)c1 [Compound 128],≤ 16 µg/mL,≤ 16 µg/mL
CSc1cc(-n2cc3cc(-c4cc(CCC(F)(F)CN)cc(Cl)c4F)[nH]c3nc2=O)ccc1[C@@H]1CCC[C@@H](CCNC(C)=N)N1 [Compound 129],≤ 16 µg/mL,≤ 16 µg/mL
CC(=N)NCCCN[C@H](c1ccc(-n2cc3cc(-c4cc(CCC[C@H](C)N)cc(Cl)c4F)[nH]c3nc2=O)cc1)C(F)(F)F [Compound 130],≤ 16 µg/mL,≤ 16 µg/mL
CC(=N)NCCCN[C@@H](C)c1ccc(-n2cc3cc(-c4cc(CCCC5(N)CC5)cc(Cl)c4F)[nH]c3nc2=O)cc1 [Compound 131],≤ 16 µg/mL,≤ 16 µg/mL
CC(=N)NCCCN[C@@H](CO)c1ccc(-n2cc3cc(-c4cc(CCC[C@H](C)N)cc(Cl)c4F)[nH]c3nc2=O)cc1 [Compound 132],≤ 16 µg/mL,≤ 16 µg/mL
CC(=N)NCCCN[C@@H](CO)c1ccc(-n2cc3cc(-c4cc(CCC[C@@H](N)CO)cc(Cl)c4F)[nH]c3nc2=O)cc1 [Compound 133],≤ 16 µg/mL,≤ 16 µg/mL
CC(=N)NCCCN[C@@H](CO)c1ccc(-n2cc3cc(-c4cc(CCC[C@@H](N)C5CC5)cc(Cl)c4F)[nH]c3nc2=O)cc1 [Compound 134],≤ 16 µg/mL,≤ 16 µg/mL
CC(=N)NCC[C@@H]1CCC[C@@H](c2ccc(-n3cc4cc(-c5cc(CCC(F)(F)CN)cc(Cl)c5F)[nH]c4nc3=O)cc2)N1C [Compound 135],≤ 16 µg/mL,≤ 16 µg/mL
CC(=N)NCCCN[C@@H](CO)c1ccc(-n2cc3cc(-c4cc(CCC[C@@H](N)CF)cc(Cl)c4F)[nH]c3nc2=O)cc1 [Compound 136],≤ 16 µg/mL,≤ 16 µg/mL
CC(=N)NCC[C@@H]1CCC[C@@H](c2ccc(-n3cc4cc(-c5cc(CCC[C@@H](N)CF)cc(Cl)c5F)[nH]c4nc3=O)cc2)N1C [Compound 137],≤ 16 µg/mL,≤ 16 µg/mL
CC(=N)NCCCNC1(c2ccc(-n3cc4cc(-c5cc(CCC[C@@H](N)CO)cc(Cl)c5F)[nH]c4nc3=O)cc2)CC1 [Compound 138],≤ 16 µg/mL,≤ 16 µg/mL
CC(=N)NCC[C@@H]1CCC[C@@H](c2ccc(-n3cc4cc(-c5cc(CCC[C@@H](N)C(F)F)cc(Cl)c5F)[nH]c4nc3=O)cc2)N1 [Compound 139],≤ 16 µg/mL,≤ 16 µg/mL
